Assay results from patent publication US20070093520A1, “Method of treatment of diarrhea-predominant irritable bowel syndrome in a subject” (priority 2005, published 2007).

Test system: diarrhea-predominant IBS subjects
Assay: 3007 Study: open-label 52-week safety study, adverse events and withdrawals
Details: Overall

## Cc1nccn1C[C@H]1CCc2c(c3cccc4c3n2CCC4)C1=O [cilansetron, (R)-(−)-4,5,6,8,9,10-hexahydro-10-[(2-methyl-1H-imidazol-1-yl)methyl]-11H-pyrido-[3,2,1-jk]-carbazol-11-one]
  TEAE: Faeces Abnormal: 9 (2%) n (%)
  TEAE: Faeces Hard: 6 (1%) n (%)
  TEAE: Fall: 4 (<1%) n (%)
  TEAE: Fatigue: 13 (2%) n (%)
  TEAE: Fatigue Aggravated: 1 (<1%) n (%)
  TEAE: Febrile Disorders: 3 (<1%) n (%)
  TEAE: Fibroma NOS: 1 (<1%) n (%)
  TEAE: Fibromyalgia: 1 (<1%) n (%)
  TEAE: Flatulence: 26 (5%) n (%)
  TEAE: Flatulence, Bloating and Distension: 36 (7%) n (%)
  TEAE: Fluid Intake Increased: 1 (<1%) n (%)
  TEAE: Fluid in Middle Ear: 1 (<1%) n (%)
  TEAE: Flushing: 1 (<1%) n (%)
  TEAE: Food Allergy: 1 (<1%) n (%)
  TEAE: Food Poisoning NOS: 3 (<1%) n (%)
  TEAE: Foot Fracture: 2 (<1%) n (%)
  TEAE: Fractures and Dislocations NEC: 1 (<1%) n (%)
  TEAE: Frequent Bowel Movements: 1 (<1%) n (%)
  TEAE: Fungal Infection NOS: 3 (<1%) n (%)
  TEAE: Fungal Infections NEC: 8 (1%) n (%)
  TEAE: Gamma-Glutamyltransferase Increased: 8 (1%) n (%)
  TEAE: Gastric Irritation: 1 (<1%) n (%)
  TEAE: Gastritis (Excl Infective): 3 (<1%) n (%)
  TEAE: Gastritis NOS: 3 (<1%) n (%)
  TEAE: Gastroenteritis NOS: 9 (2%) n (%)
  TEAE: Gastroenteritis Viral NOS: 11 (2%) n (%)
  TEAE: Gastrointestinal Atonic and Hypomotility Disorders NEC: 133 (25%) n (%)
  TEAE: Gastrointestinal Disorders: 268 (50%) n (%)
  TEAE: Gastrointestinal Disorders NEC: 3 (<1%) n (%)
  TEAE: Gastrointestinal Dyskinetic Disorders: 4 (<1%) n (%)
  TEAE: Gastrointestinal Histopathology Procedures: 37 (7%) n (%)
  TEAE: Gastrointestinal Infections - Pathogen Class Unspecified: 9 (2%) n (%)
  TEAE: Gastrointestinal Inflammatory Disorders NEC: 2 (<1%) n (%)
  TEAE: Gastrointestinal Motility Disorder NOS: 3 (<1%) n (%)
  TEAE: Gastrointestinal Mucosal Dystrophies and Secretion Disorders: 1 (<1%) n (%)
  TEAE: Gastrointestinal Signs and Symptoms NEC: 4 (<1%) n (%)
  TEAE: Gastrointestinal Spastic and Hypermotility Disorders: 5 (<1%) n (%)
  TEAE: Gastrointestinal and Abdominal Pains (Excl Oral and Throat): 69 (13%) n (%)
  TEAE: General Disorders and Administration Site Conditions: 42 (8%) n (%)
  TEAE: General Signs and Symptoms NEC: 9 (2%) n (%)
  TEAE: Gilbert's Syndrome: 1 (<1%) n (%)
  TEAE: Gingival Abscess: 2 (<1%) n (%)
  TEAE: Gingival Atrophy: 1 (<1%) n (%)
  TEAE: Gingival Disorders NEC: 3 (<1%) n (%)
  TEAE: Gingival Pain: 1 (<1%) n (%)
  TEAE: Gingival Pains: 1 (<1%) n (%)
  TEAE: Gingivitis: 2 (<1%) n (%)
  TEAE: Gingivitis Infection NOS: 1 (<1%) n (%)
  TEAE: Glucose Tolerance Impaired: 1 (<1%) n (%)
  TEAE: Glucose Urine Present: 1 (<1%) n (%)
  TEAE: Glycosuria: 1 (<1%) n (%)
  TEAE: Goitre: 1 (<1%) n (%)
  TEAE: Gout: 2 (<1%) n (%)
  TEAE: Groin Pain: 1 (<1%) n (%)
  TEAE: Haematocrit Decreased: 1 (<1%) n (%)
  TEAE: Haematoma NOS: 1 (<1%) n (%)
  TEAE: Haematuria: 4 (<1%) n (%)
  TEAE: Haemoglobin Decreased: 1 (<1%) n (%)
  TEAE: Haemorrhoidal Haemorrhage: 4 (<1%) n (%)
  TEAE: Haemorrhoids: 11 (2%) n (%)
  TEAE: Haemorrhoids Aggravated: 1 (<1%) n (%)
  TEAE: Haemorrhoids and Gastrointestinal Varices (Excl Oesophageal): 15 (3%) n (%)
  TEAE: Halitosis: 1 (<1%) n (%)
  TEAE: Hallucination NOS: 1 (<1%) n (%)
  TEAE: Hallucination, Auditory: 1 (<1%) n (%)
  TEAE: Hand Fracture: 1 (<1%) n (%)
  TEAE: Headache NOS: 31 (6%) n (%)
  TEAE: Headache NOS Aggravated: 5 (<1%) n (%)
  TEAE: Headaches NEC: 39 (7%) n (%)
  TEAE: Hearing Losses: 1 (<1%) n (%)
  TEAE: Heart Rate Increased: 2 (<1%) n (%)
  TEAE: Heart Rate and Pulse Investigations: 2 (<1%) n (%)
  TEAE: Heat Exhaustion: 1 (<1%) n (%)
  TEAE: Heat Injuries (Excl Thermal Burns): 1 (<1%) n (%)
  TEAE: Helicobacter Pylori Antibody Positive: 1 (<1%) n (%)
  TEAE: Hepatitis NOS: 1 (<1%) n (%)
  TEAE: Hepatobiliary Disorders: 5 (<1%) n (%)
  TEAE: Hepatobiliary Signs and Symptoms: 1 (<1%) n (%)
  TEAE: Hepatocellular Damage and Hepatitis NEC: 1 (<1%) n (%)
  TEAE: Hepatosplenomegaly NOS: 1 (<1%) n (%)
  TEAE: Hernia NOS: 1 (<1%) n (%)
  TEAE: Hernia Repair NOS: 1 (<1%) n (%)
  TEAE: Hernia Repairs: 1 (<1%) n (%)
  TEAE: Hernias NEC: 1 (<1%) n (%)
  TEAE: Herpes Simplex: 3 (<1%) n (%)
  TEAE: Herpes Simplex Aggravated: 1 (<1%) n (%)
  TEAE: Herpes Viral Infections: 5 (<1%) n (%)
  TEAE: Herpes Zoster: 1 (<1%) n (%)
  TEAE: Hiatus Hernia: 2 (<1%) n (%)
  TEAE: Hot Flushes NOS: 1 (<1%) n (%)
  TEAE: Hypercholesterolaemia: 6 (1%) n (%)
  TEAE: Hyperglycaemia NOS: 3 (<1%) n (%)
  TEAE: Hyperglycaemic Conditions NEC: 4 (<1%) n (%)
  TEAE: Hyperkeratoses: 1 (<1%) n (%)
  TEAE: Hyperkeratosis: 1 (<1%) n (%)
  TEAE: Hyperlipidaemia NOS: 1 (<1%) n (%)
  TEAE: Hyperlipidaemias NEC: 1 (<1%) n (%)
  TEAE: Hyperreflexia: 1 (<1%) n (%)
  TEAE: Hypersensitivity NOS: 2 (<1%) n (%)
  TEAE: Hypertension Aggravated: 2 (<1%) n (%)
  TEAE: Hypertension NOS: 13 (2%) n (%)
  TEAE: Hypoaesthesia: 2 (<1%) n (%)
  TEAE: Hypotension NOS: 1 (<1%) n (%)
  TEAE: Immune System Disorders: 9 (2%) n (%)
  TEAE: Inborn Errors of Bilirubin Metabolism: 1 (<1%) n (%)
  TEAE: Infected Varicose Vein: 1 (<1%) n (%)
  TEAE: Infections NEC: 4 (<1%) n (%)
  TEAE: Infections and Infestations: 173 (32%) n (%)
  TEAE: Influenza: 18 (3%) n (%)
  TEAE: Influenza Like Illness: 4 (1%) n (%)
  TEAE: Influenza Viral Infections: 18 (3%) n (%)
  TEAE: Ingrowing Nail: 1 (<1%) n (%)
  TEAE: Inguinal Hernia NOS: 1 (<1%) n (%)
  TEAE: Inguinal Hernias: 1 (<1%) n (%)
  TEAE: Injury, Poisoning and Procedural Complications: 47 (9%) n (%)
  TEAE: Inner Ear Disorders NEC: 1 (<1%) n (%)
  TEAE: Inner Ear Infections and Inflammations: 3 (<1%) n (%)
  TEAE: Inner Ear Signs and Symptoms: 3 (<1%) n (%)
  TEAE: Insomnia: 5 (<1%) n (%)
  TEAE: Insomnia Exacerbated: 1 (<1%) n (%)
  TEAE: Intermenstrual Bleeding*: 1 (<1%) n (%)
  TEAE: Intervertebral Disc Degeneration NOS: 2 (<1%) n (%)
  TEAE: Intervertebral Disc Disorder NOS: 1 (<1%) n (%)
  TEAE: Intervertebral Disc Disorders NEC: 5 (<1%) n (%)
  TEAE: Intervertebral Disc Herniation: 4 (<1%) n (%)
  TEAE: Intestinal Haemorrhages: 8 (1%) n (%)
  TEAE: Intraocular Pressure Increased: 2 (<1%) n (%)
  TEAE: Investigations: 126 (24%) n (%)
  TEAE: Irritability: 1 (<1%) n (%)
  TEAE: Irritable Bowel Syndrome: 1 (<1%) n (%)
  TEAE: Irritable Bowel Syndrome Aggravated: 3 (<1%) n (%)
  TEAE: Ischaemic Coronary Artery Disorders: 4 (<1%) n (%)
  TEAE: Joint Related Disorders NEC: 2 (<1%) n (%)
  TEAE: Joint Related Signs and Symptoms: 14 (3%) n (%)
  TEAE: Joint Sprain: 4 (<1%) n (%)
  TEAE: Joint Swelling: 1 (<1%) n (%)
  TEAE: Kidney Infection NOS: 1 (<1%) n (%)
  TEAE: Labyrinthitis NOS: 3 (<1%) n (%)
  TEAE: Laceration: 6 (1%) n (%)
  TEAE: Lacrimal Disorders: 2 (<1%) n (%)
  TEAE: Lactose Intolerance: 1 (<1%) n (%)
  TEAE: Laryngeal and Adjacent Sites Disorders NEC (Excl Infections and Neoplasms): 3 (<1%) n (%)
  TEAE: Laryngitis NOS: 3 (<1%) n (%)
  TEAE: Leiomyoma NOS: 1 (<1%) n (%)
  TEAE: Lethargy: 1 (<1%) n (%)
  TEAE: Leukopenia NOS: 2 (<1%) n (%)
  TEAE: Leukopenias NEC: 2 (<1%) n (%)
  TEAE: Libido Decreased: 1 (<1%) n (%)
  TEAE: Lid, Lash and Lacrimal Structural Disorders (Excl Congenital): 1 (<1%) n (%)
  TEAE: Ligament Sprain: 2 (<1%) n (%)
  TEAE: Limb Discomfort NOS: 1 (<1%) n (%)
  TEAE: Limb Injuries NEC (Incl Traumatic Amputation): 4 (<1%) n (%)
  TEAE: Limb Injury NOS: 2 (<1%) n (%)
  TEAE: Lip and Palate Disorders NEC: 1 (<1%) n (%)
  TEAE: Lipid Metabolism Disorder NOS: 1 (<1%) n (%)
  TEAE: Lipid Metabolism and Deposit Disorders NEC: 1 (<1%) n (%)
  TEAE: Lipoma NOS: 2 (<1%) n (%)
  TEAE: Liver Function Analyses: 23 (4%) n (%)
  TEAE: Liver Function Tests NOS Abnormal: 2 (<1%) n (%)
  TEAE: Localised Infection: 2 (<1%) n (%)
  TEAE: Localised Osteoarthritis: 1 (<1%) n (%)
  TEAE: Loss of Consciousness: 1 (<1%) n (%)
  TEAE: Lower Limb Fracture NOS: 1 (<1%) n (%)
  TEAE: Lower Limb Fractures and Dislocations: 3 (<1%) n (%)
  TEAE: Lower Respiratory Tract Signs and Symptoms: 2 (<1%) n (%)
  TEAE: Lower Respiratory Tract and Lung Infections: 28 (5%) n (%)
  TEAE: Lymphadenopathy: 2 (<1%) n (%)
  TEAE: Lymphangitis and Lymphatic Disorders NEC: 2 (<1%) n (%)
  TEAE: Lymphocyte Count Increased: 2 (<1%) n (%)
